Experimental data from PubChem BioAssay (NCI).
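48-hour exposure; five concentrations; linearly interpolated endpoints. GI50 is the concentration that inhibits growth by half. TGI: total growth inhibition.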

Tests used:
Assay in all cases: NCI tumour cell line growth inhibition, 48 h
SF-268 CNS = system: SF-268 CNS
SNB-19 CNS = system: SNB-19 CNS
K-562 leukemia = system: K-562 leukemia
HOP-92 NSCLC = system: HOP-92 NSCLC
A549 NSCLC = system: A549 NSCLC
RXF 393 renal = system: RXF 393 renal
MDA-MB-231 breast = system: MDA-MB-231 breast
MCF7 breast = system: MCF7 breast
OVCAR-8 ovarian = system: OVCAR-8 ovarian
CAKI-1 renal = system: CAKI-1 renal
MOLT-4 leukemia = system: MOLT-4 leukemia
UO-31 renal = system: UO-31 renal
NCI-H522 lung = system: NCI-H522 lung
T-47D breast = system: T-47D breast
LOX IMVI melanoma = system: LOX IMVI melanoma
SF-295 CNS = system: SF-295 CNS
DU-145 prostate = system: DU-145 prostate
EKVX NSCLC = system: EKVX NSCLC
HOP-62 NSCLC = system: HOP-62 NSCLC
NCI-H226 lung = system: NCI-H226 lung
UACC-257 melanoma = system: UACC-257 melanoma
MALME-3M melanoma = system: MALME-3M melanoma
COLO 205 colon = system: COLO 205 colon
NCI-H23 lung = system: NCI-H23 lung
ACHN renal = system: ACHN renal
HT29 colon = system: HT29 colon
HS 578T breast = system: HS 578T breast
TK-10 renal = system: TK-10 renal
SK-MEL-2 melanoma = system: SK-MEL-2 melanoma
SK-MEL-5 melanoma = system: SK-MEL-5 melanoma
HCT-15 colon = system: HCT-15 colon
OVCAR-4 ovarian = system: OVCAR-4 ovarian
KM12 colon = system: KM12 colon
UACC-62 melanoma = system: UACC-62 melanoma
SK-OV-3 ovarian = system: SK-OV-3 ovarian
OVCAR-3 ovarian = system: OVCAR-3 ovarian
SW-620 colon = system: SW-620 colon
HL-60(TB) leukemia = system: HL-60(TB) leukemia
U251 CNS = system: U251 CNS
HCC-2998 colon = system: HCC-2998 colon
RPMI-8226 leukemia = system: RPMI-8226 leukemia
M14 melanoma = system: M14 melanoma
CCRF-CEM leukemia = system: CCRF-CEM leukemia
IGROV1 ovarian = system: IGROV1 ovarian
OVCAR-5 ovarian = system: OVCAR-5 ovarian
SR leukemia = system: SR leukemia
NCI/ADR-RES ovarian = system: NCI/ADR-RES ovarian
SNB-75 CNS = system: SNB-75 CNS
SN12C renal = system: SN12C renal
SF-539 CNS = system: SF-539 CNS
SK-MEL-28 melanoma = system: SK-MEL-28 melanoma
NCI-H460 lung = system: NCI-H460 lung
PC-3 prostate = system: PC-3 prostate
BT-549 breast = system: BT-549 breast
A498 renal = system: A498 renal
786-0 renal = system: 786-0 renal
MDA-N = system: MDA-N
MDA-MB-435 = system: MDA-MB-435
HCT-116 colon = system: HCT-116 colon

Work on `COc1ccc2nc3cc([N+](=O)[O-])ccc3c(NCCCN(CCO)CCO)c2c1` yielded a GI50 (SF-268 CNS) of 4.09 µM, a TGI (SF-268 CNS) of 10.8 µM and a GI50 (SNB-19 CNS) of 5.68 µM. The TGI (SNB-19 CNS) was 18.6 µM, the GI50 (K-562 leukemia) was 1.94 µM and the TGI (K-562 leukemia) was 4.77 µM. It also gave a GI50 (HOP-92 NSCLC) of 4.31 µM, a TGI (HOP-92 NSCLC) of 11.2 µM and a GI50 (A549 NSCLC) of 10.9 µM. The TGI (A549 NSCLC) was 24.6 µM, the GI50 (RXF 393 renal) was 2.93 µM and the TGI (RXF 393 renal) was 11.5 µM. The GI50 (MDA-MB-231 breast) was 7.78 µM, the TGI (MDA-MB-231 breast) was 21.8 µM and the GI50 (MCF7 breast) was 0.889 µM. For the same compound, the TGI (MCF7 breast) was 4.95 µM, the GI50 (OVCAR-8 ovarian) was 3.31 µM and the TGI (OVCAR-8 ovarian) was 11.2 µM. The GI50 (CAKI-1 renal) was 10.9 µM, the TGI (CAKI-1 renal) was 22.8 µM and the GI50 (MOLT-4 leukemia) was 2.59 µM. It also gave a TGI (MOLT-4 leukemia) of 5.99 µM, a GI50 (UO-31 renal) of 8.56 µM and a TGI (UO-31 renal) of 22.6 µM. It also gave a GI50 (NCI-H522 lung) of 1.36 µM, a TGI (NCI-H522 lung) of 2.86 µM and a GI50 (T-47D breast) of 1.62 µM. The TGI (T-47D breast) was 7.5 µM, the GI50 (LOX IMVI melanoma) was 2.42 µM and the TGI (LOX IMVI melanoma) was 6.32 µM. It also gave a GI50 (SF-295 CNS) of 9 µM, a TGI (SF-295 CNS) of 22.3 µM and a GI50 (DU-145 prostate) of 12.6 µM. The TGI (DU-145 prostate) was 43.4 µM, the GI50 (EKVX NSCLC) was 7.48 µM and the TGI (EKVX NSCLC) was 18.4 µM. The GI50 (HOP-62 NSCLC) was 11.4 µM, the TGI (HOP-62 NSCLC) was 24.1 µM and the GI50 (NCI-H226 lung) was 8.1 µM. For the same compound, the TGI (NCI-H226 lung) was 21.5 µM, the GI50 (UACC-257 melanoma) was 2.82 µM and the TGI (UACC-257 melanoma) was 7.55 µM. For the same compound, the GI50 (MALME-3M melanoma) was 2.21 µM, the TGI (MALME-3M melanoma) was 5.3 µM and the GI50 (COLO 205 colon) was 2.64 µM. The TGI (COLO 205 colon) was 9.12 µM, the GI50 (NCI-H23 lung) was 6.43 µM and the TGI (NCI-H23 lung) was 14.2 µM. For the same compound, the GI50 (ACHN renal) was 10 µM, the TGI (ACHN renal) was 23 µM and the GI50 (HT29 colon) was 2.03 µM. For the same compound, the TGI (HT29 colon) was 5.21 µM, the GI50 (HS 578T breast) was 4.06 µM and the TGI (HS 578T breast) was 12.5 µM. It also gave a GI50 (TK-10 renal) of 5.95 µM, a TGI (TK-10 renal) of 22 µM and a GI50 (SK-MEL-2 melanoma) of 1.49 µM. The TGI (SK-MEL-2 melanoma) was 3.2 µM, the GI50 (SK-MEL-5 melanoma) was 1.8 µM and the TGI (SK-MEL-5 melanoma) was 4.69 µM. It also gave a GI50 (HCT-15 colon) of 12.8 µM, a TGI (HCT-15 colon) of 25.4 µM and a GI50 (OVCAR-4 ovarian) of 3.81 µM. The TGI (OVCAR-4 ovarian) was 11.4 µM, the GI50 (KM12 colon) was 2.64 µM and the TGI (KM12 colon) was 9.97 µM. For the same compound, the GI50 (UACC-62 melanoma) was 3.34 µM, the TGI (UACC-62 melanoma) was 11.6 µM and the GI50 (SK-OV-3 ovarian) was 12.7 µM. The TGI (SK-OV-3 ovarian) was 17.2 µM, the GI50 (OVCAR-3 ovarian) was 5.53 µM and the TGI (OVCAR-3 ovarian) was 12.3 µM. For the same compound, the GI50 (SW-620 colon) was 3.15 µM, the TGI (SW-620 colon) was 12.3 µM and the GI50 (HL-60(TB) leukemia) was 2.56 µM. It also gave a TGI (HL-60(TB) leukemia) of 22.7 µM, a GI50 (U251 CNS) of 3.57 µM and a TGI (U251 CNS) of 13.4 µM. The GI50 (HCC-2998 colon) was 2.87 µM, the TGI (HCC-2998 colon) was 7.88 µM and the GI50 (RPMI-8226 leukemia) was 2.28 µM. It also gave a TGI (RPMI-8226 leukemia) of 8.9 µM, a GI50 (M14 melanoma) of 2.36 µM and a TGI (M14 melanoma) of 5.18 µM. It also gave a GI50 (CCRF-CEM leukemia) of 3.78 µM, a TGI (CCRF-CEM leukemia) of 14.6 µM and a GI50 (IGROV1 ovarian) of 2.51 µM. The TGI (IGROV1 ovarian) was 7.13 µM, the GI50 (OVCAR-5 ovarian) was 12.5 µM and the TGI (OVCAR-5 ovarian) was 25.2 µM. The GI50 (SR leukemia) was 1.97 µM, the TGI (SR leukemia) was 14.3 µM and the GI50 (NCI/ADR-RES ovarian) was 15.9 µM. The TGI (NCI/ADR-RES ovarian) was 39.9 µM, the GI50 (SNB-75 CNS) was 10.9 µM and the TGI (SNB-75 CNS) was 22.9 µM. The GI50 (SN12C renal) was 3.92 µM, the TGI (SN12C renal) was 14.7 µM and the GI50 (SF-539 CNS) was 7.63 µM. It also gave a TGI (SF-539 CNS) of 20.3 µM, a GI50 (SK-MEL-28 melanoma) of 3.93 µM and a TGI (SK-MEL-28 melanoma) of 13 µM. For the same compound, the GI50 (NCI-H460 lung) was 2.18 µM, the TGI (NCI-H460 lung) was 8.75 µM and the TGI (PC-3 prostate) was 20.1 µM. For the same compound, the GI50 (BT-549 breast) was 5.58 µM, the TGI (BT-549 breast) was 12.8 µM and the GI50 (A498 renal) was 18 µM. It also gave a TGI (A498 renal) of 38.6 µM, a GI50 (786-0 renal) of 4.09 µM and a TGI (786-0 renal) of 21.1 µM. The GI50 (MDA-N) was 3.47 µM, the TGI (MDA-N) was 8.93 µM and the GI50 (MDA-MB-435) was 2.27 µM. For the same compound, the TGI (MDA-MB-435) was 5.67 µM, the GI50 (HCT-116 colon) was 2.36 µM and the TGI (HCT-116 colon) was 9.54 µM.
